“And” between values parts separate entries of the source, which are not always exact repeats. Equal values may be shown once. Read-outs that look alike come from different tables or passages of the source.
How the values were obtained:
[1] = target: T1, APT1 (Homo sapiens, UniProt O75608); assay: APT1 enzymatic assay, resorufin acetate as fluorogenic substrate; type: biochemical
T1 construct: made in house; host or cells: E. coli BL21 (DE3)

[2] = target: T2, APT2 (Homo sapiens, UniProt O95372); assay: APT2 enzymatic assay, resorufin acetate as fluorogenic substrate; type: biochemical; parameters: made in house; host or cells: E. coli BL21 (DE3)
T2 sequence (O95372 whole entry): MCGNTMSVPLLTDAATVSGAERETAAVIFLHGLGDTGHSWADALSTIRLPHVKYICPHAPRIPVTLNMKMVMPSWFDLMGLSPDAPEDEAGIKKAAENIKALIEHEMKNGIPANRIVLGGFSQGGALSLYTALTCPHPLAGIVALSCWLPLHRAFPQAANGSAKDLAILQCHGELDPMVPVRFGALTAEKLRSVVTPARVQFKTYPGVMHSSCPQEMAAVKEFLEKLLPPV

[3] = test system: off target proteins; assay: TAMRA-FP ABPP in APT2 spiked cell lysate, other bands (off targets); type: binding; conditions: FIG. 8
[4] = target: T1, APT1; assay: Competitive in vitro ABPP with TAMRA-FP, cell lysate spiked with APT1; type: binding; conditions: qualitative, FIG. 6C
[5] = 50 mg/kg daily injection
[6] = target: T2, APT2; assay: Gel filtration assay to identify covalent inhibitors (TAMRA-FP labeling); type: biochemical; parameters: expressed in transfected cells; host or cells: HEK 293T
[7] = test system: STAT3 palmitoylation; assay: STAT3 palmitoylation in HEK 293T cells expressing STAT3 and DHHC7 (endogenous APT2); type: cell-based; conditions: 16-hour treatment; for palmitoylation signal of STAT3: 50 μM
[8] = test system: DSS induced colitis; assay: Dextran sodium sulfate (DSS) induced colitis model; type: in vivo, mice; conditions: for lengths of the colons compared to the control groups / colon length longer than the control group / colon length difference to control: 50 mg/kg intraperitoneal; for lengths of the colons compared to the control groups: 2.5% DSS, all groups; for body weight loss / colon length longer than the control group: female mice; for difference in body weight / colon length difference to control: male mice
[9] = target: T2, APT2; assay: Competitive in vitro ABPP with TAMRA-FP, cell lysate spiked with APT2; type: binding; parameters: made in house; host or cells: E. coli BL21 (DE3); conditions: for inhibition at 90 µM: inhibitor at 90 μM
[10] = test system: SMAD2 palmitoylation; assay: SMAD2 palmitoylation in HEK 293T cells (Alk14 labeling, in-gel fluorescence); type: cell-based; conditions: inhibitors at 25 μM, 6 h
[11] = test system: HEK 293T cells; assay: Cell viability of HEK 293T cells; conditions: at 50 mM (so in the source)
[12] = test system: STAT3 palmitoylation; assay: STAT3 palmitoylation in HEK 293T cells transfected with STAT3, APT2 and DHHC7; type: cell-based; conditions: inhibitors at 25 μM for 16 hours
[13] = Table 1, resorufin acetate as the substrate, read-out: IC50 (μM) APT1
[14] = Table 2, class symbols, read-out: IC50 (μM) APT1
[15] = Table 1, resorufin acetate as the substrate, read-out: IC50 (μM) APT2
[16] = Table 2, class symbols, read-out: IC50 (μM) APT2
[17] = read-out: inhibition of TAMRA-FP fluorescent labeling of APT2
[18] = Example 3 (FIG. 4), 15 min pre-incubation, read-out: IC50 APT2
[19] = Example 3 (FIG. 4), 15 min pre-incubation

T1 sequence (O75608 whole entry): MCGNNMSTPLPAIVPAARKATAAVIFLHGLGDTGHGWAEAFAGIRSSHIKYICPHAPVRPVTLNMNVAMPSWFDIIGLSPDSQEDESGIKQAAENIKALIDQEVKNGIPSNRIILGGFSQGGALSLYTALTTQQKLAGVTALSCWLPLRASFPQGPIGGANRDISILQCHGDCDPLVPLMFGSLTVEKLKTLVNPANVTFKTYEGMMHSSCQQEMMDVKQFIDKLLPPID

SMILES	IC50 [1, 13]	IC50 [1, 14]	IC50 [2, 15]	IC50 [2, 16]	other results
CCCOc1ccc(N2CCN(C(=O)c3cc4c(s3)-c3ccccc3S(=O)(=O)C4)CC2)cc1 [APT-MY1]	> 200 µM	> 40 µM	0.836 µM	0.1 to 1 µM	
CCCCCCOc1ccc(N2CCN(C(=O)c3cc4c(s3)-c3ccccc3S(=O)(=O)C4)CC2)cc1 [APT-MY2]	> 200 µM	> 40 µM	2.03 µM	1 to 40 µM	
CCCNC(=O)c1cc2c(s1)-c1ccccc1S(=O)(=O)C2 [APT-MY3, N-Propyl-4H-thieno[3,2-c]thiochromene-2-carboxamide 5,5-dioxide]	> 200 µM	> 40 µM	> 200 µM	> 40 µM	
CCCCCCN1CCN(C(=O)c2cc3c(s2)-c2ccccc2S(=O)(=O)C3)CC1 [APT-MY4, (5,5-dioxido-4H-thieno[3,2-c]thiochromen-2-yl) (4-hexylpiperazin-1-yl) methanone]	> 200 µM	> 40 µM	3.99 µM	1 to 40 µM	
Cc1ccc(NC(=O)c2cc3c(s2)-c2ccccc2S(=O)(=O)C3)cc1 [APT-MY5, N-(p-tolyl)-4H-thieno[3,2-c]thiochromene-2-carboxamide 5,5-dioxide]	> 200 µM	> 40 µM	> 200 µM	> 40 µM	
CCCCCCCCc1ccc(NC(=O)c2cc3c(s2)-c2ccccc2S(=O)(=O)C3)cc1 [APT-MY6, N-(4-octylphenyl)-4H-thieno[3,2-c]thiochromene-2-carboxamide 5,5-dioxide]	> 200 µM	> 40 µM	> 200 µM	> 40 µM	
CCCCCCCCNC(=O)c1cc2c(s1)-c1ccccc1S(=O)(=O)C2 [APT-MY7, N-octyl-4H-thieno[3,2-c]thiochromene-2-carboxamide 5,5-dioxide]	> 200 µM	> 40 µM	> 200 µM	> 40 µM	
COc1ccc(N2CCN(C(=O)c3cc4c(s3)-c3ccccc3[S+]([O-])C4)CC2)cc1 (centres unmarked) [APT-MY8]	> 200 µM	> 40 µM			
COc1ccc(N2CCN(C(=O)c3cc4cc(B(O)O)c5ccccc5c4s3)CC2)cc1 [KW5129, (2-(4-(4-Methoxyphenyl)piperazine-1-carbonyl)naphtho[1,2-b]thiophen-5-yl)boronic acid]					change of fluorescent intensity in bands other than APT2 (off target reaction) [3]: only seen in the APT2 band; inhibition of APT1 in competitive ABPP [4]: could also inhibit APT1; tolerability in mice [5]: well tolerated; mode of APT2 inhibition (covalent or non-covalent) ([6]; from gel filtration assay): non-covalent inhibitor; TAMRA-FP fluorescent labeling of APT2 after gel filtration ([6]; lysate treated with inhibitor, passed over size exclusion column): almost complete fluorescent labeling after just one gel filtration; palmitoylated STAT3 ([7]; 25 μM): significant increase; palmitoylation signal of STAT3 [7]: more potent; APT1 IC50 higher than APT2 IC50 ([1]; APT1 IC50 versus APT2 IC50): about 5.2 fold; IC50 ([1]; Example 3 (FIG. 4), 15 min pre-incubation, read-out: IC50 APT1): 0.41 µM; lengths of the colons compared to the control groups [8]: significant increase; body weight loss [8]: less severe; colon length longer than the control group [8]: 1.4 cm; difference in body weight [8]: no statistically significant difference; colon length difference to control [8]: ~0.5 cm; inhibition at 90 µM [9, 17]: ~90%; inhibition of TAMRA-FP fluorescent labeling of APT2 ([9]; inhibitor at 270 μM): almost completely abolished; IC50 [2, 18]: 0.079 µM; more potent at inhibiting APT2 compared with ML349 ([2]; relative to ML349): ~9 times
COc1ccc(N2CCN(C(=O)c3cc4cc(B(O)O)c5ccccc5c4s3)CC2)cc1 [KW05129]	0.19 µM	0.1 to 1 µM	0.079 µM	< 0.1 µM	SMAD2 palmitoylation level [10]: slightly better than ML349; effect on cell viability [11]: no effect; STAT3 palmitoylation level (acylation normalized by STAT3 protein) [12]: slightly better than ML349; time-dependent inhibition of APT2 ([2]; pre-incubation 30 min versus standard): not observed; APT2 IC50 lower than that of ML349 ([2]; relative to ML349): 8.54 fold
COc1ccc(N2CCN(C(=O)c3cc4cc(O)c5ccccc5c4s3)CC2)cc1 [KW5130, (5-Hydroxynaphtho[1,2-b]thiophen-2-yl) (4-(4-methoxyphenyl)piperazin-1-yl) methanone]					IC50 [2, 18]: ~5 µM
COc1ccc(N2CCN(C(=O)c3ccc(-c4ccccc4B(O)O)s3)CC2)cc1 [KW5175, (2-(5-(4-(4-methoxyphenyl)piperazine-1-carbonyl)thiophen-2-yl)phenyl)boronic acid]					IC50 APT2 [2, 19]: much less potent
COc1ccc(N2CCN(C(=O)c3ccc(-c4ccccc4B(O)O)s3)CC2)cc1 [KW05175]			16.1 µM	1 to 40 µM	
COc1ccc(N2CCN(C(=O)c3cc4cc(S(=O)(=O)F)c5ccccc5c4s3)CC2)cc1 [KW5191, 2-(4-(4-Methoxyphenyl)piperazine-1-carbonyl)naphtho[1,2-b]thiophene-5-sulfonyl fluoride]					IC50 ([2]; IC50 APT2): 1.8 µM
COc1ccc(N2CCN(C(=O)c3cc4cc(S(=O)(=O)F)c5ccccc5c4s3)CC2)cc1 [KW05191]					IC50 ([2]; IC50 (μM) APT2): 1.77 µM and 1 to 40 µM
COc1ccc(N2CCN(C(=O)c3cc(B(O)O)cs3)CC2)cc1 [KW5192, (5-(4-(4-Methoxyphenyl)piperazine-1-carbonyl)thiophen-3-yl)boronic acid]					IC50 [2, 18]: 1.1 µM
COc1ccc(N2CCN(C(=O)c3cc(B(O)O)cs3)CC2)cc1 [KW05192]			1.06 µM	1 to 40 µM	
O=C(CN1CCN(C(=O)c2ccco2)CC1)Nc1cc(C(F)(F)F)ccc1Cl [ML348, reference compound]			> 200 µM	> 40 µM	
COc1ccc(N2CCN(C(=O)c3cc4c(s3)-c3ccccc3S(=O)(=O)C4)CC2)cc1 [ML349, reference compound]	> 200 µM	> 40 µM	0.675 µM	0.1 to 1 µM	change of fluorescent intensity in bands other than APT2 (off target reaction) [3]: only seen in the APT2 band; effect on cell viability [11]: no effect; palmitoylation signal of STAT3 [7]: slightly increased; APT2 selectivity / inhibition of APT1 ([1]; qualitative, FIG. 4): selective for APT2; lengths of the colons compared to the control groups [8]: significant increase; body weight loss [8]: less severe; colon length longer than the control group [8]: 1.4 cm; difference in body weight [8]: no statistically significant difference; colon length difference to control [8]: ~0.5 cm; inhibition at 90 µM [9, 17]: ~70%; inhibition at 270 µM ([9]; inhibitor at 270 μM, read-out: inhibition of TAMRA-FP fluorescent labeling of APT2): ~70%; STAT3 palmitoylation level (acylation normalized by STAT3 protein) [12]: increase STAT3 palmitoylation levels
CCCOc1ccc(N2CCN(C(=O)c3cc4c(s3)-c3ccccc3S(=O)(=O)C4)CC2)cc1 [MY1, (5,5-Dioxido-4H-thieno[3,2-c]thiochromen-2-yl) (4-(4-propoxyphenyl)piperazin-1-yl) methanone]					IC50 APT2 [2, 19]: did not improve the potency
CCCCCCOc1ccc(N2CCN(C(=O)c3cc4c(s3)-c3ccccc3S(=O)(=O)C4)CC2)cc1 [MY2, (5,5-dioxido-4H-thieno[3,2-c]thiochromen-2-yl) (4-(4-(hexyloxy)phenyl)piperazin-1-yl) methanone]					IC50 APT2 [2, 19]: did not improve the potency

Source: patent publication US20250092067A1, “APT1 and APT2 Inhibitors and Uses Thereof” (Cornell University, priority 2021, published 2025)
